This note sets out measurements from ChEMBL document CHEMBL5257123, “Synthesis of 6-alkoxy and 6-hydroxy-alkyl amine derivatives of braylin as vasorelaxing agents” (Bioorg Med Chem Lett, 2023).

Data set [1] is filed under the species Rattus norvegicus. Nature of the data set: Vasorelaxant activity in U46619-induced preconstricted rat endothelium-intact main mesenteric artery assessed as relaxation response at 30 uM relative to control. The data set is classed as functional.
Data set [2] is filed under the species Rattus norvegicus. Nature of the data set: Vasorelaxant activity in U46619-induced contraction rat endothelium-intact main mesenteric arterial rings assessed as relaxation response relative to control. The data set is classed as functional. Particulars: Mesenteric artery.
Data set [3] concerns BV-2. Nature of the data set: Anti-neuroinflammatory activity in mouse BV2 cells assessed as reduction in LPS-induced IL-6 production at 10 uM preincubated for 30 mins followed by LPS stimulation measured after 24 hrs by ELISA. The data set is classed as functional, cell-based. Particulars: time 24.5 hrs.
Data set [4] is described as follows: Cytotoxicity against VSMC (unknown origin) cells assessed as cell survival at 10 uM measured after 12 hrs by MTT assay. The data set is classed as toxicity, cell-based. Particulars: read-out: Activity.
For data set [5], the species on record is Rattus norvegicus. Nature of the data set: Vasorelaxant activity in U46619-induced contraction rat endothelium-intact main mesenteric arterial rings assessed as relaxation response. The data set is classed as functional. Particulars: Mesenteric artery.
The species named for data set [6] is Rattus norvegicus. Nature of the data set: Vasorelaxant activity in U46619-induced contraction in rat endothelium-denuded main mesenteric arterial ring assessed as relaxation response relative to control. Particulars: Mesenteric artery. The data set is classed as functional.
Data set [7] is filed under the species Rattus norvegicus. Nature of the data set: Vasorelaxant activity in U46619-induced contraction in rat endothelium-denuded main mesenteric arterial ring assessed as relaxation response. The data set is classed as functional. Particulars: Mesenteric artery.
For data set [8], the species on record is Rattus norvegicus. Nature of the data set: Vasorelaxant activity in MKHS-induced preconstricted rat main mesenteric arterial rings assessed as relaxation response. Particulars: Mesenteric artery. The data set is classed as functional.
For data set [9], the species on record is Rattus norvegicus. Nature of the data set: Vasorelaxant activity in U46619 induced preconstricted rat endothelium-intact thoracic aortic rings assessed as vasorelaxation response. The data set is classed as functional. Particulars: Thoracic aorta.
The species entered for data set [10] is Rattus norvegicus. Nature of the data set: Vasorelaxant activity in U46619-induced preconstricted rat endothelium-intact main mesenteric artery assessed as relaxation response. The data set is classed as functional.
For data set [11], the system named is BV-2. Nature of the data set: Anti-neuroinflammatory activity in mouse BV2 cells assessed as reduction in LPS-induced TNFalpha production at 10 uM preincubated for 30 mins followed by LPS stimulation measured after 24 hrs by ELISA. Particulars: time 24.5 hrs. The data set is classed as functional, cell-based.
Data set [12] is described as follows: Cytotoxicity against VSMC (unknown origin) cells assessed as cell survival at 1 uM measured after 12 hrs by MTT assay. The data set is classed as toxicity, cell-based. Particulars: read-out: Activity.
The species named for data set [13] is Rattus norvegicus. Nature of the data set: Vasorelaxant activity in rat endothelium-denuded main mesenteric artery assessed as relaxation response at 10 uM. The data set is classed as functional.
For data set [14], the species on record is Rattus norvegicus. Nature of the data set: Vasorelaxant activity in U46619-induced preconstricted rat endothelium-intact main mesenteric artery assessed as relaxation response at 10 uM (reference value: 9.08 +/- 1.25 mN). The data set is classed as functional. On the set-up: scale not given: the % may be the effect or the level left.
The species named for data set [15] is Rattus norvegicus. Nature of the data set: Vasorelaxant activity in rat endothelium-intact main mesenteric artery assessed as relaxation response at 10 uM. The data set is classed as functional.

The source made the active and inactive calls. The rule behind the calls is not given here.

For the compound `CCCOc1cc2ccc(=O)oc2c2c1OC(C)(C)C=C2`, in the data set filed under Rattus norvegicus [1], the maximum response (Emax) at 30 µM was 80.6%. Further, the Emax in the data set filed under Rattus norvegicus [2] is 80.6%; in the data set listed under Rattus norvegicus [6], 85%. The result in the data set with BV-2 [3], in the data set listed under Rattus norvegicus [8] and in the data set on BV-2 [11] was Active. Further, the viability at 12 h, 10 µM in data set [4] is 105%. Moreover, the EC50 was 2.04 µM in the data set listed under Rattus norvegicus [5], 0.339 µM in the data set filed under Rattus norvegicus [7], 1.9 µM in the data set filed under Rattus norvegicus [10] (read-out: EC50) and 2.04 µM in the data set filed under Rattus norvegicus [10] (read-out: pEC50 (converted)). Also, the Activity result in the data set filed under Rattus norvegicus [9] was “Dose-Dependent Effect”. Also, the viability at 12 h, 1 µM in [12] was determined as 107%.

Consider `CC1(C)C=Cc2c(c(OCC3CO3)cc3ccc(=O)oc23)O1` (stereo not given), for which, in the data set listed under Rattus norvegicus [1], the Emax at 30 µM was < 50%.

For the compound `CC1(C)C=Cc2c(c(OCC(O)CN3CCCCC3)cc3ccc(=O)oc23)O1` (stereo not given), the Emax at 30 µM in the data set listed under Rattus norvegicus [1] is < 50%.

As for `CN(C)CC(O)COc1cc2ccc(=O)oc2c2c1OC(C)(C)C=C2` (stereo not given), the Emax at 30 µM in the data set listed under Rattus norvegicus [1] is < 50%.

`COc1cc2ccc(=O)oc2c2c1OC(C)(C)C=C2`: the result in the data set with BV-2 [3] and in the data set with BV-2 [11] was Active. For the same compound, the viability at 12 h, 10 µM in [4] came out at 95.2%. Besides, the EC50 in the data set listed under Rattus norvegicus [10] (read-out: EC50) and in the data set listed under Rattus norvegicus [10] (read-out: pEC50 (converted)) was 1.58 µM throughout. The viability at 12 h, 1 µM in [12] came to 101%.

As for `CC1(C)C=Cc2c(c(OCC(O)CN3CCNCC3)cc3ccc(=O)oc23)O1` (stereo not given), the Emax at 30 µM in the data set filed under Rattus norvegicus [1] was < 50%.

As to `CC1(C)C=Cc2c(c(O)cc3ccc(=O)oc23)O1`, the result in the data set on BV-2 [3] and in the data set with BV-2 [11] was Active.

In the case of `CC(C)N(CC(O)COc1cc2ccc(=O)oc2c2c1OC(C)(C)C=C2)C(C)C` (stereo not given), the maximal effect (Emax) at 30 µM in the data set filed under Rattus norvegicus [1] was < 50%.

As for `CCCCOc1cc2ccc(=O)oc2c2c1OC(C)(C)C=C2`, in the data set listed under Rattus norvegicus [1], the maximum response (Emax) at 30 µM was < 50%.

Turning to `CCCCCN(C)CC(O)COc1cc2ccc(=O)oc2c2c1OC(C)(C)C=C2` (stereo not given), the Emax at 30 µM in the data set listed under Rattus norvegicus [1] was < 50%.

Turning to `COc1cc2ccc(=O)oc2cc1O` [SCOPOLETIN], the outcome in the data set on BV-2 [3] and with BV-2 [11] was Active. The viability at 12 h, 10 µM in data set [4] came out at 102%. For the same compound, the viability at 12 h, 1 µM in data set [12] came out at 91.2%.

For `CC1(C)C=Cc2c(c(OCC(O)CN3CCOCC3)cc3ccc(=O)oc23)O1` (stereo not given), the Emax at 30 µM in the data set filed under Rattus norvegicus [1] was < 50%.

Take `CC1(C)C=Cc2c(c(OCC(O)CNCc3ccccn3)cc3ccc(=O)oc23)O1` (stereo not given): in the data set filed under Rattus norvegicus [1], the Emax at 30 µM was < 50%.

Consider `CC1(C)C=Cc2c(ccc3ccc(=O)oc23)O1` [SESALIN], for which, in the data set listed under Rattus norvegicus [1], the Emax at 30 µM was 60.8%. In addition, the outcome in the data set with BV-2 [3] and in the data set on BV-2 [11] was Active. For the same compound, the EC50 in the data set listed under Rattus norvegicus [10] (read-out: EC50) is 2.12 µM; in the data set listed under Rattus norvegicus [10] (read-out: pEC50 (converted)) it was 2.14 µM.

For `CCCCN(C)CC(O)COc1cc2ccc(=O)oc2c2c1OC(C)(C)C=C2` (stereo not given), in the data set listed under Rattus norvegicus [1], the Emax at 30 µM was < 50%.

`CC(=O)OCC[N+](C)(C)C` [ACETYLCHOLINE]: the result in the data set listed under Rattus norvegicus [13] was inactive. In addition, the Activity in the data set filed under Rattus norvegicus [14] stood at 88.4%. The outcome in the data set listed under Rattus norvegicus [15] was Active.

`CCN(CC)CC(O)COc1cc2ccc(=O)oc2c2c1OC(C)(C)C=C2` (stereo not given): in the data set listed under Rattus norvegicus [1], the Emax at 30 µM was < 50%.

On to `CCOc1cc2ccc(=O)oc2c2c1OC(C)(C)C=C2`, for which, in the data set listed under Rattus norvegicus [1], the Emax at 30 µM was 96.6%. Besides, the values for the Emax in the data set filed under Rattus norvegicus [2] and in the data set listed under Rattus norvegicus [6] were 96.6% and 91.4%, respectively. Also, the outcome in the data set with BV-2 [3], in the data set filed under Rattus norvegicus [8] and in the data set with BV-2 [11] was Active. The viability at 12 h, 10 µM in [4] came to 105%. In addition, the EC50 was 0.2 µM in the data set listed under Rattus norvegicus [5], 0.195 µM in the data set listed under Rattus norvegicus [7] and 0.2 µM in the data set listed under Rattus norvegicus [10] (read-out: pEC50 (converted)). In addition, in the data set filed under Rattus norvegicus [9], the Activity result was “Dose-Dependent Effect”. For the same compound, the viability at 12 h, 1 µM in data set [12] came to 114%.

For `CC1(C)C=Cc2c(c(OCC(O)CN3CCCC3)cc3ccc(=O)oc23)O1` (stereo not given), the Emax at 30 µM in the data set listed under Rattus norvegicus [1] is < 50%.

For the compound `CCN1CCN(CC(O)COc2cc3ccc(=O)oc3c3c2OC(C)(C)C=C3)CC1` (stereo not given), the Emax at 30 µM in the data set listed under Rattus norvegicus [1] is < 50%.

In the case of `CN1CCN(CC(O)COc2cc3ccc(=O)oc3c3c2OC(C)(C)C=C3)CC1` (stereo not given), in the data set filed under Rattus norvegicus [1], the maximum response (Emax) at 30 µM was < 50%.

As to `CC(C)Oc1cc2ccc(=O)oc2c2c1OC(C)(C)C=C2`, in the data set filed under Rattus norvegicus [1], the Emax at 30 µM was < 50%.
